Molecular target: T1, Protoporphyrinogen IX oxidase (Zea mays, UniProt Q9FYV8)
T1 sequence (Q9FYV8 whole entry): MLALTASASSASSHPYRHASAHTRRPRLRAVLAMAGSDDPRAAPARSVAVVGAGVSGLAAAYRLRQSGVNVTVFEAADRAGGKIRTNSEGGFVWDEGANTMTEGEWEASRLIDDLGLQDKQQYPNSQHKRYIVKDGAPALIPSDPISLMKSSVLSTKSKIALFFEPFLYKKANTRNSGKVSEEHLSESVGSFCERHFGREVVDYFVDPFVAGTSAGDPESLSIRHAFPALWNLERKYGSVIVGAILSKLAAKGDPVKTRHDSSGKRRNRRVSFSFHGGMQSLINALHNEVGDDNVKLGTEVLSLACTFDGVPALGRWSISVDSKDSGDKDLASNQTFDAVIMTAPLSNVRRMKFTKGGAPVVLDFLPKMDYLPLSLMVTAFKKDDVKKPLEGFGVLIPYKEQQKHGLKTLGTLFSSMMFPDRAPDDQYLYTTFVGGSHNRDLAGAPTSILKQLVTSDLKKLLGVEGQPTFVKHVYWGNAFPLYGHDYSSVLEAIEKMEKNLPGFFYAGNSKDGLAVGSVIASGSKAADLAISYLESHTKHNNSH
Test: Inhibition of Zea mays cv. Anjou (maize) plastid Protoporphyrinogen IX oxidase assessed as inhibition of protoporphyrin IX by fluorescence spectrophotometry
Details: read-out: pI50 (converted)

Row | IC50 [µM] | Compound
1 | 0.339 | O=c1n(-c2ccc(Br)cc2)c(=O)n2n1CCCC2
2 | 0.0537 | O=c1n(-c2ccc(Br)cc2)c(=S)n2n1CCC2
3 | 0.0129 | O=c1n(-c2ccc(Br)cc2)c(=S)n2n1CCCC2
4 | 0.617 | O=c1n(-c2ccc(Br)cc2)c(=O)n2n1CCC2
5 | 3.63 | O=c1s/c(=N\c2ccc(Br)cc2)n2n1CCC2
6 | 0.0501 | O=C1C2=C(CCCC2)C(=O)N1c1ccc(Br)cc1
7 | 2.51 | O=c1n(-c2ccc(Br)cc2)c(=O)n2n1CCCCC2
8 | 0.0288 | S=c1n(-c2ccc(Br)cc2)c(=S)n2n1CCC2
9 | 0.0708 | S=c1n(-c2ccc(Br)cc2)c(=S)n2n1CCCCC2
10 | 0.129 | O=c1n(-c2ccc(Br)cc2)c(=S)n2n1CCCCC2
11 | 0.324 | S=c1s/c(=N\c2ccc(Br)cc2)n2n1CCC2
